The record followed here is PMC6010102, “N-thioalkylcarbazoles derivatives as new anti-proliferative agents: synthesis, characterisation and molecular mechanism evaluation” (Journal of Enzyme Inhibition and Medicinal Chemistry, 2018).

Assay [1] deals with 3T3-L1 murine fibroblasts. Put plainly: MTT cell viability, 3T3-L1. It counts as cell-based. To be noted: Mus musculus, non-tumoural cells, 72 h exposure, mean ± SD, read-out: Antiproliferative activity IC50, 3T3-L1. An excerpt:
(§1) The six cell lines used in this work were purchased from American Type Culture Collection (ATCC, Manassas, VA). MCF-7 human breast cancer cells, oestrogen receptor (ER) positives, were maintained in Dulbecco’s Modified Eagle’s Medium/Nutrient Mixture F-12 Ham (DMEM/F12), supplemented with 5% foetal bovine serum (FBS) and 100 U/ml penicillin/streptomycin, as previously described. MDA-MB-231, human breast cancer cells, oestrogen receptor (ER) negative, were maintained in Dulbecco’s Modified Eagle’s Medium/Nutrient Mixture F-12 Ham (DMEM/F12), supplemented with 5% Newborn Calf Serum (NCS) and 100 U/ml penicillin/streptomycin. HeLa human epithelial cervix carcinoma cells, oestrogen receptor (ER) negative, and ISHIKAWA human endometrial adenocarcinoma cell, oestrogen receptor positive, were maintained in minimum essential medium (MEM), supplemented with 10% FBS, 100 U/ml penicillin/streptomycin and 1% non-essential amino acid. 3T3-L1 cells line of murine fibroblasts of embryonic type, were maintained in DMEM, supplemented with 10% NCS and 100 U/ml penicillin/streptomycin. MCF-10A human mammary epithelial cells were cultured in DMEM/F12 medium, supplemented with 5% horse serum (HS) (Eurobio, Les Ullis, Cedex, France), 100 U/ml penicillin/streptomycin, […] hydrocortisone, 20 ng/ml hEGF (human epidermal growth factor), 10 μg/ml insulin and […] cholera enterotoxin (Sigma-Aldrich, Milano, Italy). Cells were maintained at 37 °C in a humidified atmosphere of 95% air and 5% CO2 and periodically screened for contamination.
(§2) MDA-MB-231, MCF-7, HeLa and ISHIKAWA cells were grown in complete medium and, before being treated, they were serum deprived for 24 h, to allow cell cycle synchronisation. Then cells were grown in phenol red-free medium supplemented with 1% DCC (destran-coated charcoal treated) FBS, then treated with increasing concentrations (0.1, 1, 10, 20, 40, 100 µM) of each compound for 72 h. Compounds were dissolved in dimethylsulphoxide (DMSO) (Sigma, St. Louis, MO) and diluted in each cell medium. Untreated cells, used as a control, were added with DMSO alone (final concentration 0.1%). Cell viability was assessed using the 3-[4,5-dimethylthiazol-2-yl]-2,5-diphenyltetrazolium bromide reagent (MTT), according to the protocol from manufacturer (Sigma-Aldrich, Milan, Italy), as previously described[37] ^, [38]. For each sample, the mean absorbance, measured at 570 nm, was expressed as a percentage of the control and plotted versus drug concentration to determine for each cell line the IC50 values (namely, drugs concentrations able to reduce cell viability of 50% with respect to the control), using GraphPad Prism 5 Software (GraphPad Inc., San Diego, CA)[39]. Each experiment was carried out in quadruplicate. Standard deviations (SD) were shown.

Another assay has as its system caspase-9. Kind of assay: Caspase-Glo assay, caspase-9. It counts as cell-based, human. To be noted: HeLa cells, concentration equal to IC50, 24 h. How it is done: Caspases-3/7, -8 and -9 activities were measured with the Caspase-Glo Assay, according to the guidelines of manufacturer (Caspase-Glo® 3/7, 8 and 9 Assay Systems, Promega Corporation, Madison, WI) as described in Iacopetta et al.[43].

The subject of another assay is Cytochrome c. Kind of assay: Cytochrome c immunofluorescence in HeLa cells. It counts as cell-based, human. To be noted: concentration equal to IC50, 24 h. How it is done:
Cells were grown on glass coverslips in full media, then serum-deprived for 24 h and exposed to compound to test, at the indicated time. Then, they were PBS-washed, fixed with cold methanol (15 min/−20 °C) and washed three times (10 min/room temperature) with cold PBS containing 0.01% TritonX-100. After incubation (30 min/room temperature) with blocking solution (PBS, 2% BSA), they were incubated with primary antibody diluted in blocking solution (4 °C/overnight). The mouse anti-cytochrome c (556433) was purchased from BD Biosciences (Franklin Lakes, NJ) and used at 1:100 dilution. Coverslips were then washed three times with PBS, then fixed cells were incubated with the secondary antibody Alexa Fluor® 568 conjugate goat-anti-mouse (1:500, Thermo Fisher Scientific, Waltham, MA). Nuclei were stained using DAPI (Sigma-Aldrich, Milan, Italy) for 10 min at a concentration of 0.2 µg/mL then washed three times with PBS. Fluorescence was detected using a fluorescence microscope (Leica DM 6000 Leica, Frankfurt am Main, Germany). LASX software was used to acquire and process all images.

Assay [2] concerns MDA-MB-231 human breast cancer cells. Put plainly: MTT cell viability, MDA-MB-231. It counts as cell-based. To be noted: 72 h exposure, mean ± SD, read-out: Antiproliferative activity IC50, MDA-MB-231.
Source text: as §1, §2

The test system of another assay is Parp-1. Put plainly: Parp-1 cleavage immunoblot in HeLa cells. It counts as cell-based, human. To be noted: 10 µM, 24, 48 and 72 h, western blot. How it is done:
Cells were serum deprived for 24 h, treated for 24, 48 and 72 h with the compound to be tested. At the end, cells were rinsed twice with ice cold PBS and immediately lysed in lysis buffer (50 mM Tris-HCl, pH 7, 5–8; 150 mM NaCl, 1% Igepal CA-630; 0.1% SDS; 0.5% sodium deoxycholate) containing 1% sodium orthovanadate and 1% phenylmethylsulphonyl fluoride (PMSF). Cell lysates were cleared by centrifugation at 14,000 g for 10 min at 4 °C. Protein concentrations were determined using the Bradford protein assay[40] (Bio-Rad Laboratories, Milan, Italy) according to the directions from the manufacturer. Equal amounts of cell extracts (about 20 µg) were resolved under denaturing conditions by electrophoresis in 10% polyacrylamide gels containing SDS (SDS-PAGE) and transferred to nitrocellulose membranes by electroblotting (GE Healthcare, Piscataway, NJ). […] After incubation with the appropriate secondary antibody (VWR International PBI, MI, Italy) for 1 h at room temperature, the proteins of interest were detected on the membranes by using enhanced chemiluminescence (Amersham ECL Prime Western Blotting Detection Reagent, GE Healthcare, Piscataway, NJ).
A general note: A western blot detects proteins with antibodies after separation by electrophoresis.

Bounds are passed on as bounds.

The IC50 is the midpoint of a concentration-inhibition curve. On to `Cc1ccc(C)c2c1c1cc(Br)ccc1n2CCCCCCCS` [5c, 7-(6-Bromo-1,4-dimethyl-9H-carbazol-9-yl)-heptane-1-thiol], for which the IC50 in assay [1] is > 100 µM; in assay [2], 27.2 ± 0.75 µM. Further, in the assay with caspase-9, the caspase-9 activity entry is given as “little, but significant, rise of caspase-9 activity”. Further, the Cytochrome c localisation entry in the assay with Cytochrome c is “determines the release of Cytochrome c from mitochondria to the cytosol”. Further, in the assay on Parp-1, the “Parp-1 cleavage (about 89 KDa form)” value was “presence of the cleaved form of Parp-1”.
